Measured values reported in paper PMC11513893, “Discovery of Oral Degraders of the ROS1 Fusion Protein with Potent Activity against Secondary Resistance Mutations” (Journal of Medicinal Chemistry, 2024).
Like-named read-outs stand apart in the source and are kept apart here. One block for each compound: values may come before it.

Columns and labels:
[1] = tested on: Ba/F3 ROS1 L2086F; assay: Antiproliferation assay; type: cell-based; settings: Mus musculus, BaF3; Ba/F3 cells, cell growth inhibition
Excerpt: To assess targeted degradation of ROS1 fusion proteins, we first established a mouse pro-B cell line Ba/F3 as a model expressing the CD74-ROS1 oncogene or CD74-ROS1 with clinically observed secondary/tertiary mutations. The Ba/F3 cell line is dependent on interleukin-3 for survival and proliferation. Upon transduction of oncogenic ROS1, Ba/F3 cells become independent of interleukin-3 but dependent on the transduced driver gene. The Ba/F3 models have been effectively employed in the discovery and preclinical development of next generation ROS1 inhibitors.[11],[14],[15] We have tested ROS1 inhibitors against these Ba/F3 cells to validate their sensitivity and resistance to ROS1 inhibition.
(§1) Ba/F3 immortalized murine bone marrow–derived pro-B cells were obtained from Creative Biogene (Shirley, NY) and cultured in RPMI supplemented with 10% FBS and IL3 (0.5 ng/mL). Ba/F3 cells expressing ROS1 variants were maintained in RPMI supplemented with 10% FBS and puromycin (0.7 mg/mL). Crizotinib, ceritinib, brigatinib, repotrectinib, and lorlatinib were purchased from MedChem Express. Each compound was dissolved in DMSO and serially diluted in RPMI for cell culture experiments.
(§2) To assess the 72 h effect of drug treatment on cell proliferation, 2000 to 3000 cells were plated in replicates of three in 96-well plates. The plates were placed in an incubator at 37 °C, 5% CO2 for 72 h. Following drug treatments, the cells were incubated with the Alamar Blue Assay reagent (BioRad), 5 μL each well for 4 h at 37 °C and 5% CO2. Luminescence was measured on a multiplate reader and analyzed. […] IC50 values were determined using a nonlinear regression model with a sigmoidal dose response in GraphPad. The data were collected based on triplicate experiments, and presented as mean ± SD.
(§3) cDNA encoding CD74-ROS1 or mutant CD74–ROS1 was cloned into retroviral expression vectors (pLenti), and viruses were generated in HEK293T cells by transfecting with packaging plasmids. The resulting virus was used to infect Ba/F3 cells. After retroviral infection, Ba/F3 cells were selected by incubation with puromycin (0.7 mg/mL) for 2 weeks. For Ba/F3 cells infected by the CD74–ROS1 variants, IL3 was withdrawn from the culture medium at least 2 weeks before the experiments.

[2] = tested on: Ba/F3 ROS1 (SLC34A2) F2075C-G1837E; assay: Antiproliferation assay; type: cell-based; settings: Mus musculus, BaF3; Ba/F3 cell line
Protocol: as §1, §2

[3] = tested on: Ba/F3 ROS1 (SLC34A2) G2032R-F2075C; assay: Antiproliferation assay; type: cell-based; settings: Mus musculus, BaF3; Ba/F3 cell line
Protocol: as §1, §2

[4] = tested on: Ba/F3 ROS1 (SLC34A2) G2032R-D2113G; assay: Antiproliferation assay; type: cell-based; settings: Mus musculus, BaF3; Ba/F3 cell line
Protocol: as §1, §2

[5] = tested on: Ba/F3 ROS1 (SLC34A2) V2098I; assay: Antiproliferation assay; type: cell-based; settings: Mus musculus, BaF3; Ba/F3 cell line
Protocol: as §1, with “Crizotinib, ceritinib, brigatinib, repotrectinib, and lorlatinib were purchased from MedChem Express.” left out
as §2

[6] = tested on: Ba/F3 ROS1 (CD74) G2032R; assay: Antiproliferation assay; type: cell-based; settings: Mus musculus, BaF3; Ba/F3 cell line
Protocol: as §1, §2, §3

[7] = tested on: Ba/F3 ROS1 (CD74) L2086F; assay: Antiproliferation assay; type: cell-based; settings: Mus musculus, BaF3; Ba/F3 cell line
Protocol: as §1, §2, §3

[8] = tested on: Ba/F3 ROS1 (CD74) G2032R-L2086F; assay: Antiproliferation assay; type: cell-based; settings: Mus musculus, BaF3; Ba/F3 cell line
Protocol: as §1, §2, §3

[9] = tested on: Ba/F3 ROS1 (CD74) S1986F-G2032R-L2086F; assay: Antiproliferation assay; type: cell-based; settings: Mus musculus, BaF3; Ba/F3 cell line
Protocol: as §1, §2, §3

[10] = tested on: Ba/F3 ROS1 (CD74) S1986F-G2032R; assay: Antiproliferation assay; type: cell-based; settings: Mus musculus, BaF3; Ba/F3 cell line
Protocol: as §1, §2, §3

[11] = tested on: Ba/F3 ROS1 (CD74) S1986F-L2086F; assay: Antiproliferation assay; type: cell-based; settings: Mus musculus, BaF3; Ba/F3 cell line
Protocol: as §1, §2, §3

[12] = Metabolic stability in rat microsomes; type: in vitro ADME; settings: 250 nM compound, NADPH, 37 °C
Protocol: (§4) Pooled human and rat microsomes were prepared and stored at −80 °C prior to use. A master-mix containing microsome, phosphate buffer, and test compound (9 series) solution was made as follows: (1) 3 μL of microsome (20 mg/mL) was diluted with mixed 30 μL of potassium phosphate buffer (pH 7.4; 10×) and 246 μL of water; (2) 3 μL of 25 μM drug solution was added to the microsome; (3) the master solution was prewarmed at 37 °C for 5 min. NADPH solution A (15 μL) and NADPH solution B (3 μL) from Promega were added to the above-mentioned master solution to initiate the reaction. The final concentration of 9 compounds in the reaction system was 250 nM. An aliquot of 20 μL was pipetted from the reaction solution and stopped by the addition of 180 μL of cold MeCN containing 25 ng of Tamoxifen-(N,N-dimethyl-13C2)-15N as an internal standard at the designated time points (0, 5, 15, 30, 45, and 60 min). The incubation solution was vortexed-mixed (800 rpm/10 min) and centrifuged at 3500 rpm for 10 min to precipitate proteins. The supernatant was collected and used for the LC/MS/MS analysis. The natural log of the remaining percentage of the test compound was plotted against time and the gradient of the line was determined.

[13] = Log P measurement; type: physicochemical
Excerpt: An important physicochemical property for a PROTAC molecule is its lipophilicity that largely dictates its pharmaceutical performance such as absorption, permeability, and distribution.

[14] = Pharmacokinetics study in Sprague–Dawley rats; type: in vivo; settings: rat
Protocol: Four to 6 weeks old Sprague–Dawley rats [Crl: CD (SD)] (SPF/VAF) were purchased from Charles River (Wilmington MA). Animals were quarantined/acclimated for 2–6 weeks prior to dose initiation. Sprague–Dawley rats were given oral administration of test compounds (20% PG, 5% Solutol, and 75% of 20% HP-β-CD in water) at different dose levels. After treatment with the compounds, whole blood was collected from each study animal by puncture of the tail vein (0.4 mL of whole blood from rats) into tubes containing K2EDTA at each time point. The plasma samples were divided into 2 aliquots (approximately equal in volume) and stored frozen at −75 ± 15 °C within 2 h of the collection until analysis.
The stock solution of the test compound (0.01 M) in DMSO was prepared and stored at −20 ± 5 °C. The desired serial concentrations of working reference analyte solutions were achieved by diluting a stock analyte solution with 50% acetonitrile (0.1% formic acid) in water solution. The bioanalytical LC–MS/MS method was developed for quantitative determination of each test compound in Sprague–Dawley rat plasma with acceptable selectivity, sensitivity, calibration curve, precision, and accuracy. The analytical method is applicable for the determination of test compounds in Sprague–Dawley rat plasma with a lower limit of quantification of 10.0 ng/mL and an upper limit of quantification of 5000 ng/mL. Five microliters of diluted supernatant was injected into the LC–MS/MS system (TSQ Quantis) and a SynergiTM 4 μm Fusion-RP 80 Å (50 × 2 mm) column using gradient elution and a Triple Quad mass spectrometer) for quantitative analysis. The mobile phases used were 0.1% formic acid in deionized water and 0.1% formic acid in acetonitrile. The pharmacokinetic parameters T1/2 (the biological half-life), Cmax (maximal concentration), Tmax (time at which Cmax is observed), and AUC (area under the plasma concentration–time curve) were calculated from the plasma concentration versus time data using WinNonlin (PhoenixTM, version 8.1, Mountain View, CA, USA).

[15] = tested on: Ba/F3 CD74-ROS1 non mutant; assay: Antiproliferation assay (Alamar Blue, 72 h); type: cell-based, mouse; settings: Ba/F3 cells, cell growth inhibition
[16] = tested on: ROS1; assay: ROS1 degradation in Ba/F3 cells (WES immunoblotting); type: cell-based; settings: for DC50: concentration needed to reduce ROS1 protein by 50%, Ba/F3 cells; for Dmax (%) (ROS1): maximal degradation of ROS1 in Ba/F3 cells
In short: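 ROS1 and phospho-ROS1 (Tyr2274/2334) in Ba/F3 lysates quantified by capillary immunoassay (WES) with chemiluminescent detection, duplicate experiments. Levels expressed as AUC of the chemiluminescence peak.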

[17] = Pharmacokinetics study in Sprague–Dawley rats; type: in vivo; settings: rat; remark: listed apart in the source
[18] = tested on: Ba/F3 ROS1-G2032R; assay: Antiproliferation assay; type: cell-based, mouse; settings: Ba/F3 cells, cell growth inhibition, 72 h
[19] = Metabolic stability in human microsomes; type: in vitro ADME; settings: 250 nM compound, NADPH, 37 °C
Protocol: as §4

[20] = Sprague-Dawley [Crl: CD (SD)], plasma, 10 mg/kg po

- IC50 [1]: > 2000 nM
- IC50 [2]: 0.4 ± 0.2 nM
- IC50 [3]: > 2000 nM
- IC50 [4]: 25 ± 6.8 nM
- IC50 [5]: 3.5 ± 0.6 nM
- IC50 [6]: 23.5 ± 3.8 nM
- IC50 [7]: 588 ± 76 nM
- IC50 [8]: 181 ± 22.5 nM
- IC50 [9]: > 2000 nM
- IC50 [10]: 31.4 ± 7.3 nM
- IC50 [11]: > 2000 nM
Structure (SMILES): C[C@H]1CNC(=O)c2cnn3ccc(nc23)N[C@H](C)c2cc(F)ccc2O1 [repotrectinib]

- metabolic stability in rat microsomes Clint [12]: 13.8 µL/min/mg
- metabolic stability in rat microsomes T1/2 [12]: 1.675 h
- log P [13]: 2.84
- AUC (po) ([14]; 10 mg/kg po): 41,622 h·ng/mL
- Cmax ([14]; 10 mg/kg po): 4582 ng/mL
- T1/2 ([14]; 10 mg/kg po): 4.11 h
- Tmax ([14]; 10 mg/kg po): 3 h
- % F ([14]; 10 mg/kg po vs 2 mg/kg iv): 16.5%
- IC50 [15]: 13 ± 2 nM
- DC50 [16]: 10 nM
- AUC (iv) ([17]; 2 mg/kg iv): 50,451 h·ng/mL
- IC50 [18]: 153 ± 20 nM
- metabolic stability in human microsomes Clint [19]: 119.5 µL/min/mg
- metabolic stability in human microsomes T1/2 [19]: 0.483 h
Structure (SMILES): COc1cc(N2CCN(CC3CN(c4ccc5c(c4)C(=O)N(C4CCC(=O)NC4=O)C5=O)C3)CC2)ccc1Nc1ncc(Cl)c(Nc2ccccc2P(C)(C)=O)n1 (centres unmarked) [9b, 5-(3-((4-(4-((5-Chloro-4-((2-(dimethylphosphoryl)phenyl)amino)pyrimidin-2-yl)amino)-3-methoxyphenyl)piperazin-1-yl)methyl)azetidin-1-yl)-2-(2,6-dioxopiperidin-3-yl)isoindoline-1,3-dione]
- Dmax (%) (ROS1) [16]: 96%

- microsomal CLint at 1 h, 0.25 µM ([12]; rat, pooled rat microsomes, pH 7.4): 12.8 µL/min/mg
- half-life at 1 h, 0.25 µM ([12]; rat, pooled rat microsomes, pH 7.4, read-out: metabolic stability in rat microsomes T1/2): 1.8 h
- logP [13]: 2.5
- Cmax at 24 h [14, 20]: 3240 ng/mL
- half-life [14, 20]: 7.7 h
- bioavailability ([14]; Sprague-Dawley [Crl: CD (SD)], plasma, 10 mg/kg po vs 1 mg/kg iv): 12.2%
- AUC ([14]; Sprague-Dawley [Crl: CD (SD)], plasma, 10 mg/kg po, read-out: AUC (po)): 25400 ng·h/mL
- Tmax ([14]; Sprague-Dawley [Crl: CD (SD)], plasma, 10 mg/kg po, read-out: Tmax): 2 h
- IC50 ([15]; Mus musculus, BaF3, 72 h): 3.8 ± 0.2 nM
- DC50 [16]: 5.1 nM
- AUC (iv) ([17]; 1 mg/kg iv): 20,850 h·ng/mL
- IC50 ([18]; Mus musculus, BaF3): 80 ± 27 nM
- microsomal CLint at 1 h, 0.25 µM ([19]; human, pooled human microsomes, pH 7.4): 57 µL/min/mg
- half-life at 1 h, 0.25 µM ([19]; human, pooled human microsomes, pH 7.4, read-out: metabolic stability in human microsomes T1/2): 1.01 h
Structure (SMILES): COc1cc(N2CCC(N3CCN(CC4CN(c5ccc6c(c5)C(=O)N(C5CCC(=O)NC5=O)C6=O)C4)CC3)CC2)ccc1Nc1ncc(Cl)c(Nc2ccccc2P(C)(C)=O)n1 (centres unmarked) [9e, 5-(3-((4-(1-(4-((5-Chloro-4-((2-(dimethylphosphoryl)phenyl)amino)pyrimidin-2-yl)amino)-3-methoxyphenyl)piperidin-4-yl)piperazin-1-yl)methyl)azetidin-1-yl)-2-(2,6-dioxopiperidin-3-yl)isoindoline-1,3-dione]
- Dmax (%) (ROS1) [16]: 97%
